Reference: ChEMBL document CHEMBL3734748, “Design, synthesis, and biological activity of N-alkylated analogue of NCL1, a selective inhibitor of lysine-specific demethylase 1” (Medchemcomm, 2015)
Activity calls are given as the source filed them. The calls are words filed in the database; no cut-off is given here.

Legend:
HeLa = experiment: Antiproliferative activity against human HeLa cells assessed as growth inhibition after 48 h by MTT assay; assay type: functional
SH-SY5Y = experiment: Antiproliferative activity against human SH-SY5Y cells assessed as growth inhibition after 48 h by MTT assay; assay type: functional
[1] = target: T1, Lysine-specific histone demethylase 1A (Homo sapiens, UniProt O60341); experiment: Potency index, ratio of IC50 for NCL1 to IC50 for test compound against full length human fusion His6 tagged LSD1 expressed in Escherichia coli BL21(DE3) cells
[2] = target: T1, Lysine-specific histone demethylase 1A; experiment: Inhibition of full length human fusion His6 tagged LSD1 expressed in Escherichia coli BL21(DE3) cells using H3K4me2 peptide substrate preincubated for 5 mins by peroxidase-coupled method
[3] = target: T1, Lysine-specific histone demethylase 1A; experiment: Inhibition of LSD1 in human SH-SY5Y cells assessed as induction of H3K4me2 accumulation at 10 uM after 24 hrs by Western blot method; assay type: cell-based
[4] = target: T1, Lysine-specific histone demethylase 1A; experiment: Inhibition of LSD1 in human SH-SY5Y cells assessed as induction of H3K4me2 accumulation at 30 uM after 24 hrs by Western blot method; assay type: cell-based
[5] = target: T2, Amine oxidase [flavin-containing] A (Homo sapiens, UniProt P21397); experiment: Inhibition of MAOA (unknown origin)
T2 sequence (P21397 whole entry): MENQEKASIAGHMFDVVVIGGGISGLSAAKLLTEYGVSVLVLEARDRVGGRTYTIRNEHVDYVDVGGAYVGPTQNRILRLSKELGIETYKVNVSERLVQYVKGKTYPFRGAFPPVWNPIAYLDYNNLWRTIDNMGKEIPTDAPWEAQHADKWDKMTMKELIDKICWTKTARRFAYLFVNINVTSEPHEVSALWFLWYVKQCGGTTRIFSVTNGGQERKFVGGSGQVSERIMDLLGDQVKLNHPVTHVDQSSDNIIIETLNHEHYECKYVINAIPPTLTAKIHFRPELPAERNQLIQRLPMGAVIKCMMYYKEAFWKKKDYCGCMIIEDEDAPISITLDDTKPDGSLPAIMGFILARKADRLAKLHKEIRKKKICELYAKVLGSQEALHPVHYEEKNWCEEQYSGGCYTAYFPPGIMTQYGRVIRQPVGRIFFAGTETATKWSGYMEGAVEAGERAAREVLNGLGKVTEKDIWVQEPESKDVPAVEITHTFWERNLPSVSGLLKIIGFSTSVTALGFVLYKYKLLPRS

[6] = target: T1, Lysine-specific histone demethylase 1A; experiment: Time-dependent inhibition of full length human fusion His6 tagged LSD1 expressed in Escherichia coli BL21(DE3) cells using H3K4me2 peptide substrate preincubated for 5 mins by peroxidase-coupled method
[7] = target: T1, Lysine-specific histone demethylase 1A; experiment: Time-dependent inhibition of full length human fusion His6 tagged LSD1 expressed in Escherichia coli BL21(DE3) cells assessed as enzyme inactivation using H3K4me2 peptide substrate preincubated for 5 mins by peroxidase-coupled method
[8] = target: T1, Lysine-specific histone demethylase 1A; experiment: Inhibition of full length human fusion His6 tagged LSD1 expressed in Escherichia coli BL21(DE3) cells assessed as FAD-NCL1 adduct formation at 100 uM incubated for 22 hrs by MALDI-TOF mass spectrometry
[9] = target: T3, Amine oxidase [flavin-containing] B (Homo sapiens, UniProt P27338); experiment: Inhibition of MAOB (unknown origin)
T3 sequence (P27338 whole entry): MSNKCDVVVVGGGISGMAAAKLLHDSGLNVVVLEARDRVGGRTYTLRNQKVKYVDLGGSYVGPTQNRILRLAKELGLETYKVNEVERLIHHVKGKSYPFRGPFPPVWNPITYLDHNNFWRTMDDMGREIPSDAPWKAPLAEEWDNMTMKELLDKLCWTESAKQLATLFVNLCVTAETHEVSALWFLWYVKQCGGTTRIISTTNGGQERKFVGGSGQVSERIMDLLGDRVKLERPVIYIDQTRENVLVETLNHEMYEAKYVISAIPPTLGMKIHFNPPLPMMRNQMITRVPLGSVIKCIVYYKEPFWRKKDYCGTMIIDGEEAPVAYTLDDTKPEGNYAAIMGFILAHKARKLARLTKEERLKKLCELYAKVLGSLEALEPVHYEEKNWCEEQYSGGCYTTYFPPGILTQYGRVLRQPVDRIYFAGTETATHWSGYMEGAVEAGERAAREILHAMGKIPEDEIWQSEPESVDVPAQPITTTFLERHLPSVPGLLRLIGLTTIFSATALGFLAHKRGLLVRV

GI50 (HeLa) | GI50 (SH-SY5Y) | Ratio IC50 [1] | IC50 [2] | inhibition [3] | inhibition [4] | IC50 [5] | Ki [6] | inhibition ([6]; TDE = time-dependent effect) | Kinact [7] | inhibition [8] | IC50 [9] | Structure (SMILES)
13 µM | 27 µM | – | – | – | – | – | – | – | – | – | – | NC1CC1c1cccc(OCC[C@H](NC(=O)c2ccccc2)C(=O)NCc2ccccc2)c1 (some centres not stated)
109 µM | 42 µM | 6 | 0.38 µM | Active | Active | > 100 µM | 2.4 µM | tde | 0.0035 s⁻¹ | Active | > 100 µM | CN1CCN(C(=O)CNC2CC2c2cccc(OCC[C@H](NC(=O)c3ccccc3)C(=O)NCc3ccccc3)c2)CC1 (some centres not stated)
> 240 µM | > 240 µM | – | 2.4 µM | – | – | – | – | – | – | – | – | CN1CCN(C(=O)CNC2CC2c2cccc(O)c2)CC1 (configuration not stated)
